# Entries after “also recorded” stand apart in the source; their conditions may differ. Where a SMILES comes first, the peptide text is derived from it.
# Assays:
# [1] = system: orthotopic human UMUC-3 tumors; test: Therapeutic efficacy for treating BC, orthotopic UMUC-3/GFP-Luc xenograft; details: 5 mg/kg weekly
# Text: These animals were immediately euthanized I week after the completion of the treatment schedule.
# Slides were then counterstained with Hematoxylin.
# [2] = Fluorescence imaging of Cyanine5.5-labeled peptides (in vivo, ex vivo, urine); set-up: species or system Female SHO mice; details: i.v.
# Text: The animals were then euthanized.
# [3] = μPET/CT imaging and biodistribution of ^89Zr-radiolabeled peptides; type: in vivo, BALB/c mice; details: i.v.
# Protocol: Radiochemistry—^89Zirconium (^89Zr) was supplied by 3DImaging LLC (Little Rock, AR). The ^89Zr-oxalate (500 μCi) was first neutralized with an equivalent volume of sodium carbonate solution (2 M), and then added to the DFO-peptides (0.2 mg, 250 μL). After incubation for 1.5 h at room temperature, the radiolabeled peptides (^89Zr-peptides) were purified by size exclusion chromatography using Sephadex G-25 gel to remove the free zirconium.
# μPET/CT imaging and biodistribution study—BALB/c mice were intravenously injected with different ^89Zr-peptide analogues (20 μCi, 100 μL). μLPET/CT imaging was performed in animals with and without urine collection prior to the first imaging (n=4/analogue/condition). Whole-body images were acquired 1, 4, and 24 h after injection, using Inveon μPET/CT scanner (Siemens Medical Solutions, Malvern, PA). μPET/CT maximum energy projections were processed using Amide v1.0.4 and Inveon Research Workplace software. The radioactivities at different region of interest (ROI) were determined. […] The radioactivities of the harvested organs were measured using the Wallac Wizard 2 gamma counter. The results were corrected from radioactive decay, and were expressed as a percentage of the injected dose (% ID) or percentage of injected dose per gram of tissue (% ID/g).
# Serum biochemistry = type: in vivo, female BALB/c mice; details: i.v. weekly for 3 weeks; DM1 0.75 mg/kg, CIS 10 mg/kg
# Text: (§1) At the end of a 3-week treatment, mice were euthanized. The organs/tissues were harvested, fixed in 10% neutral buffered formalin for 2 days. Bones were decalcified in a formic acid solution (Surgipath Decalcifier I; Leica Biosystems, Weltzar, Germany). The samples were then embedded in paraffin, sectioned (5 μm), and stained with H&E for examination by an ACVP board certified anatomic pathologist.
# (§2) Hematology and biochemistry—Blood samples were collected via cardiac puncture. A complete blood count, including red blood cell, white blood cell, reticulocyte and platelet counts, with an automated differential leukocyte count, was performed using an IDEXX Procyte DX hematology analyzer (iDEXX, Westbrook. ME). Blood smears were prepared, stained with modified Wright's stain, examined in a blinded fashion by a board-certified veterinary clinical pathologist (T.S.), and imaged using a Nikon Eclipse TE2000-U fluorescent microscope equipped with a photometrics CoolSNAP HQ^2 camera (Nikon Corporation, Tokyo, Japan). The blood was also centrifuged (1,500×G) for 15 min to obtain the serum for biochemical analysis using a Beckman Coulter AU680 analyzer (Beckman Coulter, Brea, CA).
# [4] = system: major organs (liver, spleen, heart, lungs, and kidneys); test: Necropsy, histopathology of major organs; type: in vivo, female BALB/c mice; details: i.v. weekly for 3 weeks; DM1/DM1-Bdd 0.75 mg/kg, CIS 10 mg/kg
# Text: as §1
# [5] = Hematology, complete blood count; type: in vivo, female BALB/c mice; details: i.v. weekly for 3 weeks; DM1/DM1-Bdd 0.75 mg/kg, CIS 10 mg/kg
# Protocol: as §1, with “Necropsy—Seven- to 9-week-old female BALB/c mice (n=4/group) were treated weekly with PBS, DM1, DM1-peptide (0.75 mg/kg of drug content), or cisplatin (10 mg/kg) via tail-vein injection (150 μL). At” for “At”
# as §2
# [6] = system: kidney injury molecule-1 (KIM-1) and neutrophil gelatinase-associated lipocalin (NGAL); test: Nephrotoxicity studies, urinary renal injury biomarkers by ELISA; type: in vivo, BALB/c mice; details: single i.v. dose; 3 days
# Protocol: The level of the acute renal injury biomarkers, neutrophil gelatinase-associated lipocalin (NGAL) and kidney injury molecule-1 (KIM-1) in the urine samples, were measured using ELISA assays according to the manufacturer's instructions (R&D Systems, Minneapolis, MN). […] All the animals (n=3/group) were euthanized at the end of the treatment and the kidneys were collected and fixed in 10% neutral buffered formalin. The tissues were then processed, embedded in paraffin, sectioned, and stained with H&E. Immunohistochemistry (IHC) for kidney injury (NGAL and KIM-I) was also performed.
compound,measurement,setting,value
"COc1cccc2c1C(=O)c1c(O)c3c(c(O)c1C2=O)C[C@@](O)(C(=O)CO)C[C@@H]3O[C@H]1C[C@H](N)[C@H](O)[C@H](C)O1 [DOX, Doxorubicin, reference compound]",body weight,[1],all the animals continuously losing weight
same,life expectancy compared to the PBS control / mortality,[1],shorter life expectancy compared to the PBS control; also recorded: died prior to receiving the final dose; also recorded: caused mortality
"Cyanine5.5 [free Cy, reference compound]",main uptake organ,[2],mainly taken up by the liver
NH2-(PEG3)DD-(PEG3)DD-(PEG3)DD-(PEG3)DD-CONH2 (SEQ ID NO:5) [PEG3DD],accumulation in kidneys over time,[3],initial increase
"CC(=O)N(O)CCCCCNC(=O)CCC(=O)N(O)CCCCCNC(=O)CCC(=O)N(O)CCCCCNC(=S)Nc1ccc(NC(=S)NCCC(=O)N[C@@H](CCCCN)C(=O)N[C@@H](CCCCN)C(=O)NCCC(=O)N[C@@H](CCCCN)C(=O)N[C@@H](CCCCN)C(=O)NCCC(=O)N[C@@H](CCCCN)C(=O)N[C@@H](CCCCN)C(=O)NCCC(=O)N[C@@H](CCCCN)C(=O)N[C@@H](CCCCN)C(N)=O)cc1 [^89Zr-BKK, metal not drawn] (HELM PEPTIDE1{[CC(=O)N(O)CCCCCNC(=O)CCC(=O)N(O)CCCCCNC(=O)CCC(=O)N(O)CCCCCNC(=S)Nc1ccc(NC(=S)[*:2])cc1].[bAla].K.K.[bAla].K.K.[bAla].K.K.[bAla].K.K.[am]}$$$$V2.0)",organ distribution,[3],delivered to the liver in addition to the URS
CN1/C(=C/C=C/C=C/C2=[N+](CCCCCC(=O)NCCC(=O)N[C@@H](CCCCN)C(=O)N[C@@H](CC(=O)O)C(=O)NCCC(=O)N[C@@H](CCCCN)C(=O)N[C@@H](CC(=O)O)C(=O)NCCC(=O)N[C@@H](CCCCN)C(=O)N[C@@H](CC(=O)O)C(=O)NCCC(=O)N[C@@H](CCCCN)C(=O)N[C@@H](CC(=O)O)C(N)=O)c3ccc4ccccc4c3C2(C)C)C(C)(C)c2c1ccc1ccccc21 [Cy-BKD] (HELM PEPTIDE1{[CN1/C(=C/C=C/C=C/C2=[N+](CCCCCC(=O)[*:2])c3ccc4ccccc4c3C2(C)C)C(C)(C)c2c1ccc1ccccc21].[bAla].K.D.[bAla].K.D.[bAla].K.D.[bAla].K.D.[am]}$$$$V2.0),main uptake organ,[2],mainly taken up by the liver
"N.N.[Cl][Pt][Cl] [CIS, cis-dichlorodiammine platinum(II)]",muscle injury (CK activity),Serum biochemistry,induced muscle injury (CK activity)
same,"histopathology of liver, spleen, heart, lungs, or kidneys",[4],"degeneration and necrosis of the proximal renal tubules, lung inflammation, and depletion of both erythrocytes and extramedullary hematopoiesis (EMH) in spleen"
same,"red blood cell, leukocyte, or platelet counts or morphologic features",[5],thrombocytopenia and lymphopenia
"CO[C@@]12[C@H](COC(N)=O)C3=C(C(=O)C(C)=C(N)C3=O)N1C[C@@H]1N[C@@H]12 [MIT, Mitomycin]","induction of KIM-1 and/or NGAL, 3 days",[6],continued induction of KIM-1 and/or NGAL
"Nc1ccn([C@@H]2O[C@H](CO)[C@@H](O)C2(F)F)c(=O)n1 [GEM, gemcitabine]","induction of KIM-1 and/or NGAL, 3 days",[6],continued induction of KIM-1 and/or NGAL
CN1/C(=C/C=C/C=C/C2=[N+](CCCCCC(=O)NCCC(=O)N[C@@H](CCCCN)C(=O)N[C@@H](CCCCN)C(=O)NCCC(=O)N[C@@H](CCCCN)C(=O)N[C@@H](CCCCN)C(=O)NCCC(=O)N[C@@H](CCCCN)C(=O)N[C@@H](CCCCN)C(=O)NCCC(=O)N[C@@H](CCCCN)C(=O)N[C@@H](CCCCN)C(N)=O)c3ccc4ccccc4c3C2(C)C)C(C)(C)c2c1ccc1ccccc21 [Cy-BKK] (HELM PEPTIDE1{[CN1/C(=C/C=C/C=C/C2=[N+](CCCCCC(=O)[*:2])c3ccc4ccccc4c3C2(C)C)C(C)(C)c2c1ccc1ccccc21].[bAla].K.K.[bAla].K.K.[bAla].K.K.[bAla].K.K.[am]}$$$$V2.0),main uptake organ,[2],mainly taken up by the liver

# From patent US20260373274A1, “PEPTIDE-LINKED DRUG DELIVERY SYSTEM” (priority 2022, published 2026)
